From patent US11020364B2, “Palmitoleic acid for use in inhibiting the attachment of sea lice to fish” (INSTITUT DE RECHERCHE EN SEMIOCHIMIE ET ETHOLOGIE APPLIQUEE, priority 2014, dated 2021)
Several values for one entry are separate records, joined by “and”; a condition that tells them apart may be missing. Equal entries are not always repeated.

Experiments:
[1] = system: Lepeophtheirus salmonis copepodids; assay: Infestation test with isomer in Atlantic salmon (Example 7); format: in vivo
Description: The aim of this example was to test the efficacy of an isomer of Sea Lice Copepodids Attachment Inhibiting Semiochemical (SCAIS) as an inhibitor of the infestation behavior of Lepoephtheirus salmonis copepodids in Atlantic salmon (Salmon salar). The test was realized using 4 rounds of 4 fish, eight of which were treated with trans-9-hexadecenoic acid and the other eight used as a control. For each round 4 fish were tested; i.e., 2 treated fish and 2 controls. To be included in the study the smolts had to have a body weight between 70 g and 150 g and the copepodits had to be able to swim actively. If the smolts had disease, loss of scales, fin damage, cataracts and/or swam abnormally they were not used in the study. If the copepodits were immobile after stimulation, they were rejected from the study. For each round 4 fish are caught and introduced into four 2-liter flat beakers supplied with 1.75 liters of seawater. The treated fish had 6 ppm of trans-9-hexadecenoic acid placed in their seawater, while in the control only seawater was used. 0.52 ml of the treatment or control were directly injected into 1.75 liters of seawater. The 4 fish were bathed in this solution for 10 minutes. The fish were then transferred to another 3.5 liter beaker supplied with 3.5 liters of seawater treated either with 3 ppm of trans-9-hexadecenoic acid or a control of simply seawater. 0.52 ml of the treatment of control were directly injected into 3.5 liters of seawater. The flat beakers were equipped with a valve such that 0.875 liters were emptied from the flat beaker. When the fish were introduced into the beakers, the valves were turned on. Ten minutes after the valves were turned on, the beakers were supplied with either 0.875 liters of the treatment of trans-9-hexadecenoic acid or 0.875 liters of the control of seawater. Ten minutes thereafter (20 minutes after the introduction of the fish into the beakers), the valves were turned off and 60 copepodits per fish were injected into each flat beaker. Five minutes later (25 minutes after introduction of the fish into the beakers), the valves were turned on. Ten minutes later (35 minutes after introduction of the fish into the beakers) each beaker was supplied with either 0.875 liters of trans-9-hexadecenoic acid or 0.875 liters of the control of seawater. Ten minutes later (45 minutes after introduction of the fish into the beakers) each beaker was supplied with either 0.875 liters of trans-9-hexadecenoic acid or 0.875 liters of the control of seawater. […] The content of plastic bag was then emptied above a filter and the number of copepodits was then counted on each filter using a magnifying glass. […] Data was analyzed using 9.4 SAS software (2002-2012 by SAS Institute Inc., Cary, N.C., U.S.A.). […]

[2] = system: Lepeophtheirus salmonis copepodids; assay: Infestation test with water dispersible tablets (Example 9); format: in vivo
From the text: The purpose of this example was to assess the efficacy of the sea lice copepodits attachment inhibiting semiochemical (SCAIS), continuously released by water dispersible tablets, on the infestation behaviour of Lepeophtheirus salmonis copepodids in Atlantic salmon smolts (Salmo salar).
72 Atlantic salmon (Salmo salar) in the smolt stage having a weight around 90 g and of the origin SALMAR® (Daugstad 6392 Vikebukt, Norway) were used in this study. 2,400 copepodits used were from the species Lepeophtheirus salmonis origin Ilab® (Bergen, Norway).
Infestation tests were measured at 1 hour, 24 hours, 72 hours and 120 hours after application of the treatment. Blood tests were undertaken at 0 hours, 1 hour, 24 hours, 72 hours and 120 hours after treatment.
[…] were used and the study was conducted in two parallel groups of Atlantic salmon smolts, one group was treated with the sea lice copepodits attachment inhibiting semiochemical tablets of cis-9-hexdecenoic acid, which were placed in a string bag half way down where the water resides in the rearing tank and the other group was the control using only ethyl alcohol.
The infestation test, carried out at 1 hour, 24 hours, 72 hours and 120 hours after application of the treatment was performed in the following manner. […]

copepodits = assay: Infestation test of smolts with copepodits (Examples 4 to 6); format: in vivo, Lepeophtheirus salmonis
Description: This test exposed young salmons (smolts weighting almost 70 grams) to a high density group of copepodits during 45 minutes in a testing device, which consisted of four 23 cm diameter tanks, with an outflow. […] Light can modify the behavior of the copepodits which have phototropism. Each tank received a smolt for 45 min (FIG. 6). The copepodits were first fished out of their rearing tank and counted on a stereomicroscope. Four infesting doses of copepodits, containing 60 copepodits each, were prepared for each run of the test. The smolts were placed in a tank containing the treatment solution (or the placebo), which concentration in active substance was 6 ppm. This bath lasted for 10 minutes. Then the smolts were placed in a tank where they were kept in 3 ppm of the same treatment (product or placebo) used in the previous bath to begin the testing. The purpose of this process was to prevent any dramatic decrease in the concentration of the active product on their skin. During the first 10 minutes, the outflow was open and the tent was closed. At that moment each tank was refilled to reach the initial volume of oxygenated liquid (refilled with the same solution, product or placebo). The outflow was then closed for 5 minutes and the infesting dose was introduced in the tank. Then the outflow was opened and stayed opened for 30 minutes with a refill every 10 minutes (without opening the tent). After 45 minutes of exposure to the copepodits, the smolts were euthanized by administration of a toxic dose of anaesthetic agent Benzoake, at a concentration of 10 times the normal dose of 30 to 40 mg/l. The dead fish were placed in a plastic bag in which they were rubbed and rinsed with sea water. The skin of the fish was rubbed with a metallic spoon, to remove all the possible copepodits attached on it, as shown in FIG. 7. Each fish was washed thus detaching all of the copepodits and shells from the fish skin. The collected liquid from the washing was filtered to count the parasites. The copepodits were counted on the filter to obtain the number of copepodites on the outer body of the fish. The gills were then dissected to count the number of copepodits on the gills. The first phase of the test compared the number of copepodits on the body and on the gills, between replicas of the test. The purpose of this phase was to validate the test and measure its standard deviation. The second phase of the test compared the number of copepodits (abbreviated cops in the Tables below) on the body and on the gills, between treated smolts and reference smolts, as a control, which were just bathed in seawater plus ethyl alcohol for the five solutions. The same test as in Example 4 was repeated using palmitoleic acid. […] The same experiment was undertaken as described in Example 4.

[3] = 8 treated fish, 6 ppm then 3 ppm
[4] = mean of replicas, 6 ppm bath then 3 ppm, 60 copepodits, 45 minutes

Row | Compound | Nb copepodits, Mean [1, 3] | Nb copepodits, Median [1, 3] | Number of copepodits ([1]; single fish, 6 ppm bath 10 minutes then 3 ppm, 60 copepodits per fish) | effect on number of copepodits attached in Atlantic salmons (in words) ([1]; vs seawater control) | mean number of copepodits attached ([2]; treatment group, water dispersible tablets in rearing tank, 60 copepodits per fish, preliminary analysis) | protection in infestation tests (in words) ([2]; water dispersible tablets, 60 copepodits per fish in closed 3.5 liter tank) | Number of copepodits attached in the gills, Mean (copepodits; Example 6, Treated salmons) | Number of copepodits attached in the gills, Median (copepodits; Example 6, Treated salmons) | Number of copepodits attached to body, Mean (copepodits; Example 6, Treated salmons) | Number of copepodits attached to body, Median (copepodits; Example 6, Treated salmons) | reduction in number of copepodits attached on the body of the salmon (in words) (copepodits; Example 6, vs control salmons and control cods) | effect on attachment of copepodits on smolts (in words) (copepodits; Examples 4 and 5, vs reference smolts in seawater plus ethyl alcohol) | Cop on body, mean (copepodits; [4]) | Cop on gills, mean (copepodits; [4]) | Cop on body (copepodits; single replica (smolt), 6 ppm bath 10 minutes then 3 ppm, 60 copepodits, 45 minutes)
1 | CCCCCC/C=C/CCCCCCCC(=O)O [SCAIS^iso, trans-9-hexadecenoic acid] | 10 | 9 | 8 | significant effect on the number of copepodits attached |  |  |  |  |  |  |  |  |  |  | 
2 | CCCCCC/C=C\CCCCCCCC(=O)O [palmitoleic acid, cis-9-hexadecenoic acid] |  |  |  |  | 10.6 | significant protection | 2.375 | 2.5 | 6.25 | 6 | highly significant reduction | important reduction of the infestation | 8.0 | 2.8 | 6 and 11 and 7 and 8
